These results are taken from patent publication US20080146599A1, “Pyrimidine Compounds Having Tie-2 (Tek) Inhibitory Activity” (ASTRAZENECA AB, priority 2005, published 2008).

One experiment addresses T1, Tie2 receptor (Homo sapiens, UniProt Q02763).
T1 construct: one can use natural cell lines or primary cells which are known to express the receptor of choice; endogenous in cells; host or cells: EA.hy926/B3 cells
In words: Cellular Tie2 autophosphorylation assay (Ang1 ligand stimulated). Type of experiment: cell-based.

Experiment [1] addresses T2, Tie2 receptor tyrosine kinase (Homo sapiens, UniProt Q02763).
T2 construct: consist of only the intracellular portion C-terminal portion of the respective receptor, within which is found the kinase domain; made in house; host or cells: baculovirus/Sf21 insect cells (or alternative equivalent); cleared lysate used, not purified protein
As to the kind of experiment: In vitro receptor tyrosine kinase inhibition assay (ELISA based microtitre plate assay). Type of experiment: biochemical. The conditions noted are these: recombinant human Tie2 kinase domain lysate, ATP 5 micromolar or Km; read-out: IC50 (μM) Test (a): Inhibition of Tie2 receptor tyrosine kinase in vitro. The method, then: Constitutive kinase activity of these recombinant proteins was determined by their ability to phosphorylate a synthetic peptide (made up of a random co-polymer of Glutamic Acid, Alanine and Tyrosine in the ratio of 6:3:1). […] Plates were washed in 50 mM HEPES pH 7.4 at room temperature to remove any excess unbound synthetic peptide.
The immobilised phospho-peptide product of the reaction was detected by immunological methods.
Kinase inhibition for a given compound was expressed as an IC50 value. […] The range of phosphorylation was calculated from the positive (vehicle plus ATP) and negative (vehicle minus ATP) control values.

Setting [2] is: whole cells, for example EA.hy926/B3, Ang1 ligand stimulated, read-out: IC50 (μM) Test (b): Inhibition of autophosphorylation of Tie2 receptor tyrosine kinase.

Each structure is given as a SMILES string. Read-outs that look alike come from different tables or passages of the source.

T2 sequence (Q02763 770-1124 limits assumed): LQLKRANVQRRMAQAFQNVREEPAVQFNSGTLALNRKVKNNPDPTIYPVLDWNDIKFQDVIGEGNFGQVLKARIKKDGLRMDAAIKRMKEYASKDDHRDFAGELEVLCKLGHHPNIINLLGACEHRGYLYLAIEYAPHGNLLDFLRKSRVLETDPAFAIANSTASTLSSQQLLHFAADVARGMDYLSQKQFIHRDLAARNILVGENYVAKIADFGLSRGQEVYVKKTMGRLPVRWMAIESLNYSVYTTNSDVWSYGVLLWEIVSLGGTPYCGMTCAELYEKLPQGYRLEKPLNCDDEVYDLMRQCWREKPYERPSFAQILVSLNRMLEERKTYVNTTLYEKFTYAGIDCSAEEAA
T1 sequence (Q02763 23-1124): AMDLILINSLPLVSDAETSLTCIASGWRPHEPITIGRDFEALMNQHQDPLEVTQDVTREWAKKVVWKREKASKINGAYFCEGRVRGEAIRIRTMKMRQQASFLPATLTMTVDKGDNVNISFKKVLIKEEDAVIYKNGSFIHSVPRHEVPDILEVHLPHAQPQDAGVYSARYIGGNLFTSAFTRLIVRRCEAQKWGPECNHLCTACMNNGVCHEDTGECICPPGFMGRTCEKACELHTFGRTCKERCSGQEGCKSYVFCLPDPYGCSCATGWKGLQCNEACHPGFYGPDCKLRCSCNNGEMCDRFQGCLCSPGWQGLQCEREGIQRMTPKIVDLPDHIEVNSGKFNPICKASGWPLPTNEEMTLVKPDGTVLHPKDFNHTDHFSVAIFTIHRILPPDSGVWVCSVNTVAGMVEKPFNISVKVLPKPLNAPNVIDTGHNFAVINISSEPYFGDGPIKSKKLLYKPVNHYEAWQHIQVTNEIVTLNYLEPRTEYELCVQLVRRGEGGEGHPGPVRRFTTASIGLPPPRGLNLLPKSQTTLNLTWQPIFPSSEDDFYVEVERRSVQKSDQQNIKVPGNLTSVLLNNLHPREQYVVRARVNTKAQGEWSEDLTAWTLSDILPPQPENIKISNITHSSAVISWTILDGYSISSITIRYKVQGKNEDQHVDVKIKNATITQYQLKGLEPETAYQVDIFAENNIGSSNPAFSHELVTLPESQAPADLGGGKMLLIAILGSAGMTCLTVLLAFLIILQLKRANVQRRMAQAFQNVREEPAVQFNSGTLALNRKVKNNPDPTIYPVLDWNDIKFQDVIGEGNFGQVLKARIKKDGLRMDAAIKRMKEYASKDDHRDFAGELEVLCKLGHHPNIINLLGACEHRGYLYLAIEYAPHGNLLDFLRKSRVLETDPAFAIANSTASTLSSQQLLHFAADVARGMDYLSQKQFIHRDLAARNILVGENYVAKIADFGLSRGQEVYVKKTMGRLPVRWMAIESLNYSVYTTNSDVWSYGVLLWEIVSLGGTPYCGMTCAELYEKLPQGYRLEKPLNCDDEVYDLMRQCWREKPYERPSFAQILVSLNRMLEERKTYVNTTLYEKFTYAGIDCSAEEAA

For `Nc1ncnc(N)c1C#Cc1cccc(NS(=O)(=O)c2cccc(Cl)c2Cl)c1` [Example 3, 2,3-dichloro-N-{3-[(4,6-diaminopyrimidin-5-yl)ethynyl]phenyl}benzenesulfonamide], the figures for the IC50 (on Tie2 receptor; in experiment [1]) were 0.29 µM and 3.7 µM, respectively.
For the molecule `Nc1ncnc(N)c1C#Cc1cccc(NS(=O)(=O)c2cc(F)ccc2F)c1` [Example 6, N-{3-[(4,6-diaminopyrimidin-5-yl)ethynyl]phenyl}-2,5-difluorobenzenesulfonamide], the IC50 on Tie2 receptor (setting [2]) came to 0.34 µM; in experiment [1], 0.4 µM.
For `Nc1ncnc(N)c1C#Cc1cccc(NS(=O)(=O)c2ccccc2Cl)c1` [Example 1, 2-chloro-N-{3-[(4,6-diaminopyrimidin-5-yl)ethynyl]phenyl}benzenesulfonamide], the IC50 at Tie2 receptor (setting [2]) turned out to be 0.78 µM; in experiment [1], 7.5 µM.
